The results in this text go back to PMC9797307, “Measurement of Pharmacokinetics and Tissue Distribution of Four Compounds from Nauclea officinalis in Rat Plasma and Tissues through HPLC-MS/MS” (Journal of Analytical Methods in Chemistry, 2022).

A short description of series [1]: Pharmacokinetic study in rat plasma after oral administration of Nauclea officinalis extracts (HPLC-MS/MS). It counts as in vivo, Male Sprague–Dawley (SD) rats. To be noted: oral Nauclea officinalis extracts 2 g/kg, noncompartment model, mean ± SD; for Cmax / MRT last / Vd/F / half-life: male, Sprague-Dawley; for Cmax: n = 6, read-out: C max (maximum plasma concentration); for MRT last: n = 6, read-out: MRT (0 − t); for Vd/F: n = 6, read-out: Vz/F (apparent distribution volume); for half-life: n = 6, read-out: t1/2 (elimination half-life) (converted). On the procedure:
(§1) Chromatographic analysis was performed on the LC-20ADXR System (Shimadzu, Japan). The Phenomenex Kinete EVO C18 100 Å (50 mm × 2.1 mm, 5 μm) column was used as the analytical column maintained at 40°C with (A) 0.1% formic acid aqueous solution and (B) acetonitrile as the mobile phase. […] The flow rate was 0.8 mL/min, and the injection volume was 5 μL.
(§2) Mass spectrometric detection was performed on an AB-SCIEX API 4000 mass spectrometer (AB SCIEX, Singapore) with ESI in negative ion multiple reaction monitoring (MRM) mode. The optimized instrument parameters were as follows: nebulizer gas: 50 psi, heated by N2 gas: 55 psi, ion spray voltage: −4500 V and temperature: 550°C; nebulizer, blowback gas, and collision gas were nitrogen; declustering potential (DP), collision energy (CE), and collision cell exit potential (CXP) of the four analytes and chloramphenicol (IS) are shown in Table 1.
Six male SD rats were tested in pharmacokinetics studies. […] The blood samples (approximately 0.5 mL) were collected via the venous plexus of the eye socket at 0.083, 0.25, 0.5, 1, 2, 4, 6, 8, […], 12, and 24 h under anesthesia. Next, each sample was immediately centrifuged at 4000 rpm for 10 min to acquire the plasma. The plasma was transferred to new tubes and stored at −80°C until further use. The pharmacokinetics parameters of the four compounds in rat plasma were calculated by the noncompartment model using Drug and Statistics (DAS 3.3.0) software (Beijing, China).
Pharmacokinetic parameters of four compounds were calculated by noncompartmental model using DAS 3.3.0 software.

The nature of series [2]: Tissue distribution in rats after oral administration of Nauclea officinalis extracts (HPLC-MS/MS). It counts as in vivo. The procedure: as §1, §2
Thirty rats were divided into five groups (n = 6) at random, which were orally administered Nauclea officinalis extracts at a dose of 2 g/kg for tissue distribution conducted at 0.5, 1, 2, 4, and 6 h. During the collection, the heart, liver, spleen, lung, kidney, stomach, small intestine, and brain were rinsed with physiological saline solution to get rid of the blood or content and blotted on filter paper and then weighed. Each tissue sample was accurately weighed and homogenized by using physiological saline at four times the tissue weight (w/v). The homogenates were stored at −80°C until analysis.
Drugs enter tissues that receive high blood flow first, followed by those that receive low blood flow.

Regarding `O=C(/C=C/c1ccc(O)c(O)c1)O[C@@H]1C[C@](O)(C(=O)O)C[C@@H](O)[C@H]1O` [Chlorogenic acid], in series [1], the Cmax stood at 242 ± 84.7 ng/mL, the MRT last stood at 5.33 ± 0.65 h, the Vd/F amounted to 916 ± 452 L/kg and the half-life was 10.6 ± 6.21 h. For the same molecule, in series [1] (n = 6), the “AUC (0 − ∞)” value was determined as 554.37 ± 166.14 μg/L∗h and the “CL (clearance rate)” value stood at 1049 ± 266.7 mL/min/kg. Moreover, the “CL (clearance rate)” value in series [1] (n = 6, listed as chlorogenic acid) worked out at 1049 ± 266.6 mL/min/kg. Further, the “Peak concentration in most tissues versus plasma” value in series [2] (after oral extract 2 g/kg) is “much lower than in plasma”.

For the molecule `C/C=C1/COC(=O)[C@H]2C(=O)N3CCc4c([nH]c5ccccc45)[C@@H]3C[C@@H]12` [Naucleactonin C], in series [1], the Cmax was found to be 1010 ± 369 ng/mL, the MRT last was 4.76 ± 1.57 h, the Vd/F was 0.966 ± 0.359 L/kg and the half-life is 4.59 ± 1.65 h. Further, in series [1] (n = 6), the “AUC (0 − t)” value worked out at 5281.36 ± 440.02 μg/L∗h, the “AUC (0 − ∞)” value turned out to be 5405.02 ± 416.99 μg/L∗h, the “CL (clearance rate)” value was found to be 2.5 ± 0.17 mL/min/kg and the “T max (time to Cmax)” value is reported as 1.66 h. The “Abundance in small intestine versus stomach” value in series [2] (after oral extract 2 g/kg) is on record as “more abundant in the small intestine than in the stomach”. For the same molecule, the “Detection in studied tissues” value in series [2] (heart, liver, spleen, lung, kidney, small intestine, stomach, brain, 0.5-6 h after oral extract 2 g/kg) is recorded as “could be detected in all studied tissue”.
